The record followed here is patent publication US20150296780A1, “MOLLUSCICIDE” (Syngenta Participations AG, priority 2008, published 2015).

Format in all cases: in vivo
In one data set the test system is D. reticulatum. The data set can be described thus: Tests to establish potential effect of surfactants on molluscicidal activity, forced ingestion (Example 6). How it is done: (§1) Adult D. reticulatum were field-collected from an irrigated plot of mixed herbage and maintained in plastic boxes lined with moist, unbleached, absorbent paper and under controlled environmental conditions (12 hour photoperiod, 10° C., 90% RH). Slugs were fed ad. lib. on wheat grain and a mixture of fresh foliage for a period of up to, but not exceeding, one week prior to testing. Slugs were then starved for a period of 48 h before treatment.
(§2) Individual slugs were weighed and anaesthetized using CO2 for a period of 10-20 minutes. Test solutions were incorporated into a warm agar jelly (1.0% w/v) to reduce the risk of regurgitation. Twenty μl aliquots of warm agar mix was then injected into the buccal cavity of a single slug using a fine glass micro-syringe and gently eased into the slug crop. Individual slugs were then placed into labelled Petri dishes lined with moist, unbleached, absorbent paper. Following application of treatments, slugs were maintained under controlled environmental conditions (12 hr photoperiod, 10° C., 90% RH), and slug health recorded over the subsequent three days. Slug health was classified into one of four categories: • Healthy (showing no symptoms) • Affected (showing some symptoms of poisoning, excessive mucus production/deformity) • Moribund (severely affected/paralysed, unable to move in response to gentle prodding) • Dead
The methods used in this trial were the same as those described in Example 2. The treatments tested are listed in Table 10, and results are in Table 11, presented as a percentage of the total number of slugs tested for each treatment. For each treatment 20 slugs were tested. For ease of comparison, the concentrations of each treatment applied were equivalent to the amount of each component that would be applied in a treatment of Amistar® at a rate of 0.1 mg a.i./slug.

The subject of data set [1] is Deroceras reticulatum. The data set is described as follows: Forced ingestion trial of Deroceras reticulatum using various strobilurin compounds (Example 2). The settings on record: for slug mortality (in words): 0.5 mg a.i./slug. The protocol: as §1, §2
For each treatment, 20 slugs were injected. […] The results are shown in Table 3, presented as a percentage of the total number of slugs tested for each treatment.

Data set [2] concerns Deroceras reticulatum. The data set is described as follows: Forced ingestion study on D. reticulatum (Example 1). As to conditions: for Number of slugs Affected / Number of slugs Dead / Number of slugs Healthy: of 20 slugs. How it is done: Forced ingestion studies were setup using the Field Slug, Deroceras reticulatum. A formulation containing the strobilurin azoxystrobin was injected directly into the gut of the slugs. Details of the formulation (Dynasty® 100FS) are: […]
Slugs were field-collected, and starved for 48 hours prior to forced ingestion studies. Individual slugs were weighed and anaesthetized using carbon dioxide for 10 to 20 minutes. Test solutions were incorporated into an agar jelly (1.0% w/v) to reduce the risk of regurgitation. For each slug, ten ul aliquots of warm agar mix were injected into the buccal cavity using a fine glass micro-syringe and gently eased into the slug crop. Individual slugs were then placed into labelled Petri dishes lined with moist, unbleached, absorbent paper. For each treatment, 20 slugs were injected. An untreated control of warm agar gel was injected for comparison purposes.
Treated slugs were maintained under controlled environmental conditions (12 hour photoperiod, 15° C., 90% relative humidity), and slug health assessments recorded over the three subsequent days. Slug health was classified into one of the following categories: • Healthy: showing no symptoms • Affected: showing some symptoms of poisoning, excessive mucus production/deformity • Dead

The test system of data set [3] is Tandonia budapestensis. The data set is described as follows: Forced ingestion trial of azoxystrobin (FS formulation) against various slug species (Example 3). The settings on record: 100FS formulation. The protocol: as §1, §2
(§3) The methods used in this trial were the same as those described in Example 2, except that the following slug species were collected and tested: Deroceras reticulatum, Anion distinctus, Anion fasciatus and Tandonia budapestensis
(§4) For each treatment, 20 slugs were injected. […] The results are shown in Table 5, presented as a percentage of the total number of slugs tested for each treatment.

Data set [4] concerns Arion distinctus. Described as above. The settings on record: 100FS formulation. How it is done: as §1, §2, §3, §4
Data set [5] relates to Arion fasciatus. The data set is described as above. As to conditions: 100FS formulation. The protocol: as §1, §2, §3, §4
For data set [6], the system named is Deroceras reticulatum. The data set can be described thus: Forced ingestion trial of azoxystrobin (SC formulation) against various slug species (Example 4). As to conditions: 250SC formulation. The protocol:
as §1, §2, §3
(§5) For each treatment, at least 20 slugs were injected. […] The results are shown in Table 7, presented as a percentage of the total number of slugs tested for each treatment.

In data set [7] the test system is Tandonia budapestensis. Described as above. The settings on record: 250SC formulation. The protocol: as §1, §2, §3, §5
Data set [8] has as its system Arion distinctus. The description is as above. The settings on record: 250SC formulation. The protocol:
as §1, §2, §3, §5

Data set [9] deals with Arion fasciatus. The data set is described as above. The settings on record: 250SC formulation. How it is done: as §1, §2, §3, §5
The subject of data set [10] is Deroceras reticulatum. The data set can be described thus: Forced ingestion trial of azoxystrobin (FS formulation) and picoxystrobin against various slug species (Example 3). How it is done: as §1
as §2, with “Dead […]” for “Dead”

The mark [11] stands for this setting: 0.1 mg a.i./slug, 72 hours after forced ingestion.
Where [12] appears, read: 0.0001 mg azoxystrobin/slug, 24 hours.
Where [13] appears, read: 0.0001 mg azoxystrobin/slug, 48 hours.
Setting [14] is: 0.0001 mg azoxystrobin/slug, 72 hours.
Where [15] appears, read: 0.001 mg azoxystrobin/slug, 24 hours.
Where [16] appears, read: 0.001 mg azoxystrobin/slug, 48 hours.
The mark [17] stands for this setting: 0.001 mg azoxystrobin/slug, 72 hours.
The mark [18] stands for this setting: 0.01 mg azoxystrobin/slug, 24 hours.
[19] abbreviates: 0.01 mg azoxystrobin/slug, 48 hours.
[20] abbreviates: 0.01 mg azoxystrobin/slug, 72 hours.
[21] abbreviates: 0.1 mg azoxystrobin/slug, 24 hours.
Where [22] appears, read: 0.1 mg azoxystrobin/slug, 48 hours.
[23] abbreviates: 0.1 mg azoxystrobin/slug, 72 hours.
Setting [24] is: 1 mg azoxystrobin/slug, 24 hours.
The mark [25] stands for this setting: 1 mg azoxystrobin/slug, 48 hours.
Where [26] appears, read: 1 mg azoxystrobin/slug, 72 hours.

With `CO/C=C(/C(=O)OC)c1ccccc1Oc1cc(Oc2ccccc2C#N)ncn1` [azoxystrobin], the Affected % in the data set with D. reticulatum (setting [11]) came to 12.5%. In the data set on D. reticulatum (setting [11]), the “Dead or Moribund %” value turned out to be 42.5%. For the same compound, in the data set with D. reticulatum (setting [11]), the Healthy % stood at 45%. This compound gave a slug mortality with D. reticulatum (azoxystrobin additionally present with surfactant/formulation (treatment 4)) of 100%. In addition, the “mean concentration that kills 99% of the population (probit analysis)” value in the data set with Deroceras reticulatum [1] (Deroceras reticulatum, treatments 1 to 4 (Amistar 250SC)) is on record as 0.068 mg a.i./slug. In the data set with Deroceras reticulatum [1] (treatments 1 to 4), the “killing of slugs (in words)” value is “highly effective at killing slugs”. The “Number of slugs Affected” value in the data set on Deroceras reticulatum [2] (setting [12]) is 0; in the data set on Deroceras reticulatum [2] (setting [13]), 0; in the data set on Deroceras reticulatum [2] (setting [14]) it was 0; with Deroceras reticulatum [2] (setting [15]), 4; in the data set with Deroceras reticulatum [2] (setting [16]) it was 2; in the data set on Deroceras reticulatum [2] (setting [17]), 2. For the same compound, the “Number of slugs Affected” value worked out at 6 with Deroceras reticulatum [2] (setting [18]); 6 with Deroceras reticulatum [2] (setting [19]); 6 in the data set with Deroceras reticulatum [2] (setting [20]); 2 in the data set with Deroceras reticulatum [2] (setting [21]); 0 in the data set with Deroceras reticulatum [2] (setting [22]); 0 in the data set with Deroceras reticulatum [2] (setting [23]). Further, the “Number of slugs Affected” value in the data set on Deroceras reticulatum [2] (setting [24]), in the data set with Deroceras reticulatum [2] (setting [25]) and in the data set with Deroceras reticulatum [2] (setting [26]) was 0 in each case. In addition, the “Number of slugs Dead” value in the data set on Deroceras reticulatum [2] (setting [12]) worked out at 0; with Deroceras reticulatum [2] (setting [13]), 0; with Deroceras reticulatum [2] (setting [14]), 0; in the data set with Deroceras reticulatum [2] (setting [15]), 0; in the data set on Deroceras reticulatum [2] (setting [16]), 4; in the data set with Deroceras reticulatum [2] (setting [17]), 4. Moreover, the “Number of slugs Dead” value in the data set on Deroceras reticulatum [2] (setting [18]) is 2; in the data set on Deroceras reticulatum [2] (setting [19]), 6; in the data set on Deroceras reticulatum [2] (setting [20]), 6; with Deroceras reticulatum [2] (setting [21]), 16; in the data set with Deroceras reticulatum [2] (setting [22]), 18; in the data set with Deroceras reticulatum [2] (setting [23]), 18. Further, the “Number of slugs Dead” value in the data set on Deroceras reticulatum [2] (setting [24]), with Deroceras reticulatum [2] (setting [25]) and in the data set on Deroceras reticulatum [2] (setting [26]) was 20 throughout. The “Number of slugs Healthy” value in the data set with Deroceras reticulatum [2] (setting [12]) is 20; in the data set on Deroceras reticulatum [2] (setting [13]), 20; in the data set on Deroceras reticulatum [2] (setting [14]), 20; in the data set on Deroceras reticulatum [2] (setting [15]) it was 16; in the data set with Deroceras reticulatum [2] (setting [16]), 14; in the data set with Deroceras reticulatum [2] (setting [17]), 14. In addition, the “Number of slugs Healthy” value in the data set on Deroceras reticulatum [2] (setting [18]) is reported as 12; in the data set with Deroceras reticulatum [2] (setting [19]), 8; in the data set on Deroceras reticulatum [2] (setting [20]), 8; in the data set on Deroceras reticulatum [2] (setting [21]), 2; in the data set with Deroceras reticulatum [2] (setting [22]) it was 2; in the data set on Deroceras reticulatum [2] (setting [23]), 2. Moreover, the “Number of slugs Healthy” value with Deroceras reticulatum [2] (setting [24]), in the data set on Deroceras reticulatum [2] (setting [25]) and in the data set with Deroceras reticulatum [2] (setting [26]) was 0 throughout. In addition, in the data set with Deroceras reticulatum [2] (efficacy increases with concentration and with time), the “activity against D. reticulatum slugs (in words)” value is “active against D. reticulatum slugs”. For the same compound, the “efficacy against slug species (in words)” value in the data set on Tandonia budapestensis [3] (Tandonia budapestensis) is on record as “effective against all three species”; in the data set on Arion distinctus [4] (Arion distinctus), “effective against all three species”; with Arion fasciatus [5] (Arion fasciatus) it was “effective against all three species”; in the data set on Deroceras reticulatum [6], “effective against all four slug species tested”; in the data set with Tandonia budapestensis [7], “effective against all four slug species tested”; in the data set with Arion distinctus [8], “effective against all four slug species tested”. For the same compound, the “efficacy against slug species (in words)” value with Arion fasciatus [9] is given as “effective against all four slug species tested”. In addition, the “concentration to kill approximately 99% of the population (probit analysis)” value in the data set on Tandonia budapestensis [3] (T. budapestensis) is recorded as 0.163 mg a.i./slug; with Arion distinctus [4] (A. distinctus), 0.183 mg a.i./slug; in the data set with Arion fasciatus [5] (A. fasciatus) it was 0.904 mg a.i./slug.
With `CO/N=C(/C1=NOCCO1)c1ccccc1Oc1ncnc(Oc2ccccc2Cl)c1F` [fluoxastrobin], in the data set with Deroceras reticulatum [1], the “slug mortality (in words)” value is “significant levels of slug mortality”.
Take `CO/C=C(/C(=O)OC)c1ccccc1COc1cccc(C(F)(F)F)n1` [picoxystrobin]: the “mean concentration that kills 99% of the population (probit analysis)” value in the data set with Deroceras reticulatum [10] (Deroceras reticulatum, treatments 1 to 4 (Acanto 250SC)) amounted to 0.198 mg a.i./slug. The “killing of slugs (in words)” value in the data set on Deroceras reticulatum [10] (doses equivalent to 0.05 mg a.i./slug or more) is “highly effective at killing slugs”.
As for `CON=C(C(=O)OC)c1ccccc1CON=C(C)c1cccc(C(F)(F)F)c1` [trifloxystrobin], the “slug mortality (in words)” value in the data set with Deroceras reticulatum [1] is “significant levels of slug mortality”.
